Where only a bound is given, the exact number is not on record here.

Here are results for seven compounds from patent US10188634B2, “3-(3H-imidazo[4,5-C]pyridin-2-yl)-1 H-pyrazolo[4,3-B]pyridines and therapeutic uses thereof” (Samumed, LLC, priority 2015, dated 2019).

Test [1] has as its system LL29 cells (primary human fibroblasts derived from IPF patients) treated with TGF-β1, α-smooth muscle actin. Kind of test: Inhibition of the fibrotic process: αSMA staining in TGF-β1 treated primary human fibroblasts from IPF patients (LL29 cells). Type of test: cell-based. Particulars: Fibroblast, 96 h; for EC50: LL29 cells treated with TGF-β1 (20 ng/mL), 4 days; for inhibition at 10 µM: LL29 cells treated with TGF-β1, 4 days, read-out: percent inhibition in brackets (given for EC50 >10 μM).

Test [2] concerns primary human mesenchymal stem cells (hMSCs). The test is described as follows: Induction of chondrogenesis in primary human mesenchymal stem cells (hMSCs), nodule imaging with Rhodamine B / Nile Red. It counts as cell-based. Particulars: for Emax: hMSCs chondrogenesis, TGF-β3 (10 ng/mL) as positive control, read-out: Max. Activity as % TGF-β3 activity; for EC50: hMSCs, concentration required to induce 50% levels of chondrogenesis vs TGF-β3 positive control, read-out: Conc (nM) of 50% TGF-β3 activity. The procedure, abridged:
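Passage 3-6 hMSCs cultured 6 days at 37° C in incomplete chondrogenic induction medium with compound (2700-10 nM, 96-well; 5000-2.2 nM, 384-well; 0.03% DMSO), TGF-β3 10 ng/mL as positive control. Fixed nodules stained with Rhodamine B/Nile Red, imaged at 531/625 nm; nodule area normalized to DMSO wells for EC50, maximum activity and dose at maximum.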

In test [1], `Oc1cncc(-c2ccc3[nH]nc(-c4nc5c(-c6cccc(F)c6)cncc5[nH]4)c3n2)c1` [Compound 489, 5-(3-(7-(3-Fluorophenyl)-3H-imidazo[4,5-c]pyridin-2-yl)-1H-pyrazolo[4,3-b]pyridin-5-yl)pyridin-3-ol] had an EC50 of 2.31 µM. Also, in test [2], the Emax is 54% and the EC50 was 21 nM.
Turning to `Fc1cccc(-c2cncc3[nH]c(-c4n[nH]c5ccc(-c6cnccn6)nc45)nc23)c1` [Compound 492, 3-(7-(3-Fluorophenyl)-3H-imidazo[4,5-c]pyridin-2-yl)-5-(pyrazin-2-yl)-1H-pyrazolo[4,3-b]pyridine], in test [1], the EC50 was over 10 µM and the inhibition at 10 µM came out at 0%. Further, in test [2], the Emax turned out to be 67% and the EC50 worked out at 2 nM.
For `CN(C)CC(=O)Nc1cncc(-c2ccc3[nH]nc(-c4nc5c(-c6cccc(F)c6)cncc5[nH]4)c3n2)c1` [Compound 925, 2-(Dimethylamino)-N-(5-(3-(7-(3-fluorophenyl)-3H-imidazo[4,5-c]pyridin-2-yl)-1H-pyrazolo[4,3-b]pyridin-5-yl)pyridin-3-yl)acetamide], in test [1], the EC50 is over 10 µM and the inhibition at 10 µM stood at 8.3%. For the same compound, in test [2], the Emax was 52% and the EC50 was 21 nM.
In turn, `COc1cccc(-c2cncc3[nH]c(-c4n[nH]c5ccc(-c6cccnc6)nc45)nc23)c1` [Compound 949, 3-(7-(3-Methoxylphenyl)-3H-imidazo[4,5-c]pyridin-2-yl)-5-(pyridin-3-yl)-1H-pyrazolo[4,3-b]pyridine] displayed an EC50 in test [1] of 6.53 µM. Further, in test [2], the Emax came to 59% and the EC50 worked out at 30 nM.
`COc1cccc(-c2cncc3[nH]c(-c4n[nH]c5ccc(-c6cncc(NC(=O)C7CCCCC7)c6)nc45)nc23)c1` [Compound 967, N-(5-(3-(7-(3-Methoxylphenyl)-3H-imidazo[4,5-c]pyridin-2-yl)-1H-pyrazolo[4,3-b]pyridin-5-yl)pyridin-3-yl)cyclohexanecarboxamide]: in test [1], the EC50 is over 10 µM and the inhibition at 10 µM amounted to 0%. In test [2], the Emax came to 80% and the EC50 is 10 nM.
Regarding `Cc1ncc(-c2ccc3[nH]nc(-c4nc5c(-c6cccc(F)c6)cncc5[nH]4)c3n2)s1` [Compound 1081, 5-(3-(7-(3-Fluorophenyl)-3H-imidazo[4,5-c]pyridin-2-yl)-1H-pyrazolo[4,3-b]pyridin-5-yl)-2-methylthiazole], the EC50 in test [1] was 1.96 µM. Besides, in test [2], the Emax was found to be 81% and the EC50 turned out to be 7 nM.
Take `Cc1cnc(-c2ccc3[nH]nc(-c4nc5c(-c6cccc(F)c6)cncc5[nH]4)c3n2)s1` [Compound 1082, 2-(3-(7-(3-Fluorophenyl)-3H-imidazo[4,5-c]pyridin-2-yl)-1H-pyrazolo[4,3-b]pyridin-5-yl)-5-methylthiazole]: in test [1], the EC50 was over 10 µM and the inhibition at 10 µM came to 0%. Also, the Emax in test [2] stood at 45%.

As usually defined, the inhibition is the relative decrease from the control value, in per cent.
